Patent US11866720B2, “Transgenic or non-transgenic plants with mutated protoporphyrinogen oxidase having increased tolerance to herbicides” (priority 2013, dated 2024)
Several values for one entry are separate records, joined by “and”; a condition that tells them apart may be missing. Identical values can stand only once.

What was measured:
[1] = target: recombinant wildtype and mutated PPO (Amaranthus PPO2: PPX2L_WC SEQ ID NO 2, PPX2L_AC SEQ ID NO 4, dG210 SEQ ID NO 6 & 8) (Amaranthus tuberculatus, UniProt Q0NZW9, R128A/F420V, form not given); experiment: biochemical
[2] = system: recombinant wildtype and mutated PPO (Amaranthus PPO2: PPX2L_WC SEQ ID NO 2, PPX2L_AC SEQ ID NO 4, dG210 SEQ ID NO 6 & 8); experiment: biochemical; parameters: species or system Amaranthus tuberculatus

recombinant wildtype and mutated PPO (Amaranthus PPO2: PPX2L_WC SEQ ID NO 2, PPX2L_AC SEQ ID NO 4, dG210 SEQ ID NO 6 & 8) (Amaranthus tuberculatus, UniProt Q0NZW9, R128A/F420V, form not given), sequence (Q0NZW9 1-534 R128A/F420V, form open): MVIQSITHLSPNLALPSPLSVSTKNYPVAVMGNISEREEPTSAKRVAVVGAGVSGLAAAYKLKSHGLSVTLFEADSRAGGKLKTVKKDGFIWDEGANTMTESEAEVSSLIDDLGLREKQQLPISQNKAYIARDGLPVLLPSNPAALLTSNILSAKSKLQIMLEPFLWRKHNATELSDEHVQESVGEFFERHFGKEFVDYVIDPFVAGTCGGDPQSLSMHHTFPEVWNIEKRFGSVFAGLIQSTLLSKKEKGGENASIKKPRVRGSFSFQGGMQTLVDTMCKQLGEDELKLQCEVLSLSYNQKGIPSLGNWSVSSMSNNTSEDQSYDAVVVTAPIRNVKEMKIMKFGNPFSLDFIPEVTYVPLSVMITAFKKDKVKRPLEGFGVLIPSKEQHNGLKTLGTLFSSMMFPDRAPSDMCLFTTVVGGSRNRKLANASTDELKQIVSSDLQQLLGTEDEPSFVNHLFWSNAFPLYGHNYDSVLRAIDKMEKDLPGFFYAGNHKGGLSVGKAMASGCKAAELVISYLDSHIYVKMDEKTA

SMILES | IC50 [1] | inhibition (%) at 1 × 10−5M [2]
C#CCN1C(=O)C(F)(F)Oc2cc(F)c(-n3c(=O)cc(C(F)(F)F)n(C)c3=O)cc21 | 6.33 nM | 
C#CCN1C(=O)C(F)(F)Oc2cc(F)c(N3C(=O)C4=C(CCCC4)C3=O)cc21 | 274 nM | 
O=C(O)c1cc(Oc2ccc(C(F)(F)F)cc2Cl)ccc1[N+](=O)[O-] [ACIFLUORFEN] |  | 39% and 33% and 27%
C#CCN1C(=O)COc2cc(F)c(N3C(=O)C4=C(CCCC4)C3=O)cc21 [Flumioxazin, flumioxazin] |  | 41% and 48% and 30%
